# Assay results from patent US7951824B2, “4-aryl-pyridine-2-carboxyamide derivatives” (Hoffman-La Roche Inc., priority 2006, dated 2011).
# Target: T1, human mGlu 5a receptor (Homo sapiens, UniProt P41594)
# T1 construct: expressed in transfected cells; host or cells: EBNA cells (transient transfection), membrane homogenates
# Test: [3H]MPEP competition binding on membranes of EBNA cells transfected with human mGlu 5a receptor
# Details: competition with [3H]MPEP (2 nM), 1 h at 4° C., EBNA cell membranes
# Protocol: The pharmacological activity of the compounds was tested using the following method: For binding experiments, cDNA encoding human mGlu 5a receptor was transiently transfected into EBNA cells using a procedure described by Schlaeger and Christensen [Cytotechnology 15:1-13 (1998)]. Cell membrane homogenates were stored at −80° C. until the day of assay where upon they were thawed and resuspended and polytronised in 15 mM Tris-HCl, 120 mM NaCl, 100 mM KCl, 25 mM CaCl2, 25 mM MgCl2 binding buffer at pH 7.4 to a final assay concentration of 20 μg protein/well.
# Saturation isotherms were determined by addition of twelve [^3H] MPEP concentrations (0.04-100 nM) to these membranes (in a total volume of 200 μd) for 1 h at 4° C. Competition experiments were performed with a fixed concentration of [^3H]MPEP (2 nM) and IC50 values of test compounds evaluated using 11 concentrations (0.3-10,000 nM). Incubations were performed for 1 h at 4° C.
# At the end of the incubation, membranes were filtered onto unifilter (96-well white microplate with bonded GF/C filter preincubated 1 h in 0.1% PEI in wash buffer, Packard Bio-Science, Meriden, Conn.) with a Filtermate 96 harvester (Packard BioScience) and washed 3 times with cold 50 mM Tris-HCl, pH 7.4 buffer. Nonspecific binding was measured in the presence of 10 μM MPEP. The radioactivity on the filter was counted (3 min) on a Packard Top-count microplate scintillation counter with quenching correction after addition of 45 μl of microscint 40 (Canberra Packard S. A., Zürich, Switzerland) and shaking for 20 min.
# For binding experiments the Ki values of the compounds tested are given. The Ki value is defined by the following formula: KiIC50/[1+L/Kd] in which the IC50 values are those concentrations of the compounds tested which cause 50% inhibition of the competing radioligand ([^3H]MPEP). L is the concentration of radioligand used in the binding experiment and the Kd value of the radioligand is empirically determined for each batch of membranes prepared.
# T1 sequence (P41594 21-1180 isoform P41594-2 limits assumed): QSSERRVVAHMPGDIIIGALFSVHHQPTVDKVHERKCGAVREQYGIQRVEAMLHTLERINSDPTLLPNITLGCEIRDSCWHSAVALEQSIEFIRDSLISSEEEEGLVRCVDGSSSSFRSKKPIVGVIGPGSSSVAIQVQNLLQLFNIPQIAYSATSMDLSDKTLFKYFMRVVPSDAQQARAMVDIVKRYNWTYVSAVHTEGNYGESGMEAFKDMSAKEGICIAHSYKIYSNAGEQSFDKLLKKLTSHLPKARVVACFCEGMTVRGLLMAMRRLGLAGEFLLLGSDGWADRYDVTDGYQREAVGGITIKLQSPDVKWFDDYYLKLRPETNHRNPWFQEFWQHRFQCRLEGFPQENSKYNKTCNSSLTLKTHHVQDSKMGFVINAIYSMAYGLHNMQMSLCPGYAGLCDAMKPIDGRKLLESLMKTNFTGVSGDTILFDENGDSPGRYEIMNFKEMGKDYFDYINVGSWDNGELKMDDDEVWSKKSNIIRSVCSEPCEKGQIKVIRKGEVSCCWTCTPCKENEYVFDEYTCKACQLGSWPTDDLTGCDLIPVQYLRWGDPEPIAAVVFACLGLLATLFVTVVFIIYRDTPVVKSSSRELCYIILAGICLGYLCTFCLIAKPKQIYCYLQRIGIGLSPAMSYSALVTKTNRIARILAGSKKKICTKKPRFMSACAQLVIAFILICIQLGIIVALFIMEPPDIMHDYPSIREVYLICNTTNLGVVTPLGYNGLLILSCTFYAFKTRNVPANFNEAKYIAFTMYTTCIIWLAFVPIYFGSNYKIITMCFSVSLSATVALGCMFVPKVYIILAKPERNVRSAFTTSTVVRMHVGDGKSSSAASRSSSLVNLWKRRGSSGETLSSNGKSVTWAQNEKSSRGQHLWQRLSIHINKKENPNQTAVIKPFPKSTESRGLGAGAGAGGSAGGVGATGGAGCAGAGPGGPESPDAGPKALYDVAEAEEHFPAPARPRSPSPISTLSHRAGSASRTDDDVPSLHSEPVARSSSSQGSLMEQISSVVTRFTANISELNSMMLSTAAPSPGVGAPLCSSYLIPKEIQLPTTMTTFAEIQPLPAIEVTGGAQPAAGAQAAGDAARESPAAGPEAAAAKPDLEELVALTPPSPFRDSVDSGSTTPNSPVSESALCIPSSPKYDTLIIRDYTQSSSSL
row,Compound,Ki [nM]
1,"Cc1cc(-c2cc(F)cc(F)c2)cc(C(=O)Nc2ncc(C)s2)n1 [Example 86, 4-(3,5-Difluorophenyl)-6-methyl-pyridine-2-carboxylic acid (5-methyl-thiazol-2-yl)-amide]",929
2,"Cc1cc(-c2cccnc2)cc(C(=O)Nc2cccc(C#N)c2)n1 [Example 95, 6′-Methyl-[3,4′]bipyridinyl-2′-carboxylic acid (3-cyanophenyl)-amide]",411
3,"Cc1cc(-c2cc(C)nn2C)c(C)c(C(=O)Nc2csc(C)n2)n1 [Example 109, 4-(2,5-Dimethyl-2H-pyrazol-3-yl)-3,6-dimethyl-pyridine-2-carboxylic acid (2-methyl-thiazol-4-yl)-amide]",127
4,"Cc1cc(-c2ccc(F)cc2)c(C)c(C(=O)Nc2ccn(C)n2)n1 [Example 118, 4-(4-Fluoro-phenyl)-3,6-dimethyl-pyridine-2-carboxylic acid (1-methyl-1H-pyrazol-3-yl)-amide]",714
5,"Cc1cc(-c2cncc(C(F)(F)F)c2)cc(C(=O)Nc2nc(C)cs2)n1 [Example 131, 6′-Methyl-5-trifluoromethyl-[3,4′]bipyridinyl-2′-carboxylic acid (4-methyl-thiazol-2-yl)-amide]",196
6,"Cc1cc(NC(=O)c2cc(-c3ccnc(C#N)c3)cc(C)n2)ccn1 [Example 142, 2′-Cyano-6-methyl-[4,4′]bipyridinyl-2-carboxylic acid (2-methyl-pyridin-4-yl)-amide]",182
7,"CCOC(=O)Cn1ccc(NC(=O)c2cc(-c3cc(F)cc(F)c3)cc(C)n2)n1 [Example 170, (3-{[4-(3,5-Difluorophenyl)-6-methyl-pyridine-2-carbonyl]-amino}-pyrazol-1-yl)-acetic acid ethyl ester]",576
8,"Cc1cc(-c2cncc(F)c2)cc(C(=O)Nc2cccc(Cl)c2)n1 [Example 177, 5-Fluoro-6′-methyl-[3,4′]bipyridinyl-2′-carboxylic acid (3-chloro-phenyl)-amide]",111
9,"Cc1cc(-c2cncc(F)c2)cc(C(=O)Nc2ccccc2)n1 [Example 180, 5-Fluoro-6′-methyl-[3,4′]bipyridinyl-2′-carboxylic acid phenylamide]",364
10,"Cc1cc(-c2cc(C)nc(C(=O)Nc3nc(C#N)cs3)c2)ccn1 [Example 185, 6,2′-Dimethyl-[4,4′]bipyridinyl-2-carboxylic acid (4-cyano-thiazol-2-yl)-amide]",290
11,"Cc1cc(-c2cc(F)cc(F)c2)nc(C(=O)Nc2nc(C)cs2)n1 [Example 192, 4-(3,5-Difluoro-phenyl)-6-methyl-pyrimidine-2-carboxylic acid (4-methyl-thiazol-2-yl)-amide]",110
12,"Cc1cc(-c2cc(F)cc(F)c2)nc(C(=O)Nc2ccnc(Cl)c2)n1 [Example 194, 4-(3,5-Difluoro-phenyl)-6-methyl-pyrimidine-2-carboxylic acid (2-chloro-pyridin-4-yl)-amide]",221
13,"Cc1cc(-c2cc(F)cc(F)c2)nc(C(=O)Nc2ccn(C)n2)n1 [Example 198, 4-(3,5-Difluoro-phenyl)-6-methyl-pyrimidine-2-carboxylic acid (1-methyl-1H-pyrazol-3-yl)-amide]",181
14,"Cc1cc(-c2cc(F)cc(F)c2)cc(C(=O)Nc2ncc(F)s2)n1 [Example 200, 4-(3,5-Difluoro-phenyl)-6-methyl-pyridine-2-carboxylic acid (5-fluoro-thiazol-2-yl)-amide]",81

# Further molecules by falling Ki, results first:
row,Ki [nM],Compound
1,79,"Cc1cc(-c2cc(F)cc(F)c2)cc(C(=O)Nc2nccc(Cl)n2)n1 [Example 167, 4-(3,5-Difluorophenyl)-6-methyl-pyridine-2-carboxylic acid (4-chloro-pyrimidin-2-yl)-amide]"
2,59,"Cc1cc(-c2ccnc(Cl)c2)cc(C(=O)Nc2ccn(C)n2)n1 [Example 153, 2′-Chloro-6-methyl-[4,4′]bipyridinyl-2-carboxylic acid (1-methyl-1H-pyrazol-3-yl)-amide]"
3,39,"Cc1cc(-c2cncc(F)c2)cc(C(=O)Nc2nc(C(F)F)cs2)n1 [Example 174, 5-Fluoro-6′-methyl-[3,4′]bipyridinyl-2′-carboxylic acid (4-difluoromethyl-thiazol-2-yl)-amide]"
4,33,"Cc1cc(-c2cncc(F)c2)cc(C(=O)Nc2ccc(Cl)cn2)n1 [Example 173, 5-Fluoro-6′-methyl-[3,4′]bipyridinyl-2′-carboxylic acid (5-chloro-pyridin-2-yl)-amide]"
5,30,"Cc1cc(-c2cc(F)cc(F)c2)cc(C(=O)Nc2ccnc(C#N)c2)n1 [Example 169, 4-(3,5-Difluorophenyl)-6-methyl-pyridine-2-carboxylic acid (2-cyano-pyridin-4-yl)-amide]"
6,20,"Cc1cccc(NC(=O)c2cc(-c3cccnc3)cc(C)n2)n1 [Example 87, 6′-Methyl-[3,4′]bipyridinyl-2′-carboxylic acid (6-methyl-pyridin-2-yl)-amide]"
7,20,"Cc1cc(-c2cc(F)cc(F)c2)cc(C(=O)Nc2nc(CC#N)cs2)n1 [Example 163, 4-(3,5-Difluorophenyl)-6-methyl-pyridine-2-carboxylic acid (4-cyanomethyl-thiazol-2-yl)-amide]"
8,14,"Cc1cc(-c2cc(F)cc(F)c2)cc(C(=O)Nc2nc(C)c(F)s2)n1 [Example 199, 4-(3,5-Difluoro-phenyl)-6-methyl-pyridine-2-carboxylic acid (5-fluoro-4-methyl-thiazol-2-yl)-amide]"
